According to patent US12377067B2, “Methods of treating PAH with combinations of ralinepag and other agents” (Arena Pharmaceuticals, Inc., priority 2016, dated 2025):
Like-named read-outs stand apart in the source and are kept apart here.

System: human PASMCs from PAH patients
Assay: Cell proliferation assay (MTS), serum-induced growth
Assay type: cell-based
Conditions: for Emax: read-out: Emax (% Inhibition); for times more potent than ralinepag alone: individual fits (Table 1)

For `O=C(O)COC[C@H]1CC[C@H](COC(=O)N(c2ccccc2)c2ccc(Cl)cc2)CC1` [ralinepag, 2-(((1r,4r)-4-(((4-chlorophenyl)(phenyl)carbamoyloxy)methyl)cyclohexyl)methoxy)acetic acid], the inhibition at 0.001 µM (Homo sapiens, PASMC, 1 nM ralinepag in the presence of 100 nM sildenafil) was 27%, the inhibition at 0.01 µM (Homo sapiens, PASMC, 10 nM ralinepag combined with 100 nM riociguat) was 45% and the inhibition at 10 µM (Homo sapiens, PASMC, 10 μM ralinepag in the presence of 100 nM sildenafil) was 56%. The inhibition at 10 µM (Homo sapiens, PASMC, 10 μM ralinepag in the presence of 100 nM treprostinil) was 69%, the EC50 (Homo sapiens, PASMC, 96 h, log EC50 printed with negative sign, ralinepag alone or + 100 nM drug, from individual fits, 9% FBS + 0.1% DMSO, 4 days, read-out: Log EC50 (n = 5) (converted)) was 25.1 nM and the EC50 (Homo sapiens, PASMC, 96 h, log EC50 printed with negative sign, ralinepag alone or + 100 nM drug, from mean fits, 9% FBS + 0.1% DMSO, 4 days, read-out: Log EC50 (n = 5) (converted)) was 44.7 nM. The Emax (Homo sapiens, PASMC, 96 h, ralinepag alone or + 100 nM drug, from individual fits, 9% FBS + 0.1% DMSO, 4 days) was 58.2 ± 4.1%, the EC50 (Homo sapiens, PASMC, 96 h, ralinepag alone or + 100 nM drug, from mean fits, 9% FBS + 0.1% DMSO, 4 days, read-out: EC50) was 44 nM and the Emax (Homo sapiens, PASMC, 96 h, ralinepag alone or + 100 nM drug, from mean fits, 9% FBS + 0.1% DMSO, 4 days) was 59.6 ± 17.3%. For the same molecule, the EC50 (Homo sapiens, PASMC, ralinepag in the presence of 100 nM sildenafil, individual fits, read-out: EC50) was 5 nM, the “dose of ralinepag at which cell proliferation was inhibited” value (combined with 100 nM macitentan) was 0.1 nM and the “dose of ralinepag at which significant inhibition of cell growth occurred” value (combined with 100 nM treprostinil) was 0.1 nM. For the same molecule, the “fold lower dose of ralinepag giving significant inhibition of cell growth” value (combined with 100 nM treprostinil vs ralinepag alone) was 10 fold, the “antiproliferative effect compared to ralinepag alone” value (in the presence of 100 nM bosentan, mean data) was “not more effective” and the “antiproliferative effect compared to ralinepag alone” value (in the presence of 100 nM macitentan, mean data) was “not significantly more effective”. For the same molecule, the “fold lower dose of ralinepag giving significant inhibition of cell growth” value (in the presence of 100 nM riociguat vs ralinepag alone) was 100 fold, the “antiproliferative effect compared to ralinepag alone” value (in the presence of 100 nM riociguat, 0.01-10,000 nM ralinepag, mean data) was “significantly more effective at 10 nM and above” and the “times more potent than ralinepag alone” value (in the presence of 100 nM riociguat) was about 2.5 times. The potency enhancement (in the presence of 100 nM riociguat, mean fits (Table 2)) was 8 fold, the “antiproliferative effect compared to ralinepag alone” value (in the presence of 100 nM sildenafil, 0.01-10,000 nM ralinepag) was “significantly (P<0.001, two-way ANOVA) more effective” and the “times more potent than ralinepag alone” value (in the presence of 100 nM sildenafil) was about 5 times. For the same molecule, the “maximum response compared to ralinepag alone” value (in the presence of riociguat or treprostinil (100 nM)) was “significantly greater maximum response” and the “concentration at which ralinepag started to significantly inhibit cell proliferation” value (ralinepag alone, not lowered by 100 nM bosentan) was “InM”.
